Tested on: not given
Assay: not given
Settings: not given

Point of comparison: `C=C1O[C@@H]2OC(C)(C)O[C@@H]2[C@@H]1OCc1ccc2ccccc2c1` [Compound 66.2], melting point 102.01 °C. Against it:
- CC1(C)O[C@H]2OC3(CC(=O)C3)[C@@H](OCc3ccc4ccccc4c3)[C@H]2O1 [Compound 66.4] — lower, 101.79 °C

Target: human PRMT5 complex enzyme (Homo sapiens, UniProt O14744)
Assay: PRMT5 inhibition study ([3H]SAM / Histone H4 methylation, filter scintillation counting)
Type: biochemical
Settings: 30 μM test compound; 120 min at 22° C.; 600 nM [3H]SAM, 250 nM Histone H4 full length; percent inhibition of the control enzyme activity
Description: The test compound, reference compound, or water (control) were incubated for 120 min at 22° C. with about 200 ng human PRMT5 complex enzyme, 600 nM [^3H]SAM and 250 nM Histone H4 full length in a buffer containing 45 mM Tris-HCl (pH 9), 45 mM NaCl, 4.5 mM MgCl2 and 3.6 mM DTT (Dithiothreitol).
For control basal measurements, the enzyme was omitted from the reaction mixture. Following incubation, the reaction was stopped by adding 33 mM citric acid and the samples were filtered rapidly in vacuo through glass fiber filters (GF/B, Packard) presoaked with 33 mM citric acid and rinsed several times with ice-cold 33 mM citric acid using a 96-sample cell harvester (Unifilter, Packard). The filters were dried then counted for radioactivity in a scintillation counter (Topcount, Packard) using a scintillation cocktail (Microscint 0, Packard).
The results were expressed as a percent inhibition of the control enzyme activity.

human PRMT5 complex enzyme, sequence (O14744 whole entry): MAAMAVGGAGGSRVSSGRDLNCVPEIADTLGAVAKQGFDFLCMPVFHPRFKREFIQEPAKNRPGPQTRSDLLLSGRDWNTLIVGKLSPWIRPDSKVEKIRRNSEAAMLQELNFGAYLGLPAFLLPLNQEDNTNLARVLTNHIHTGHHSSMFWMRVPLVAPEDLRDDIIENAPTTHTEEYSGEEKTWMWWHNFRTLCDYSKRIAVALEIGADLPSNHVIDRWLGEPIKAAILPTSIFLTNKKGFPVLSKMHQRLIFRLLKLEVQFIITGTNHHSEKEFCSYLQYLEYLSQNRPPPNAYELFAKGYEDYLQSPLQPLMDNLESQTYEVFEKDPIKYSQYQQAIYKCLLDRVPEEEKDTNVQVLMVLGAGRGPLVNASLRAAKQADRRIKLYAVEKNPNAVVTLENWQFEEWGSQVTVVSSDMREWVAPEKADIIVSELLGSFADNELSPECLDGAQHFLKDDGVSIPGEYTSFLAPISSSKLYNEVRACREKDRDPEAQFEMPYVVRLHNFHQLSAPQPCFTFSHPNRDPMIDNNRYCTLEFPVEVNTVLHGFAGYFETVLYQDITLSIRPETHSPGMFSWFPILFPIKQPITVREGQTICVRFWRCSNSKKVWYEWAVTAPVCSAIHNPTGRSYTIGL
human PRMT5 complex enzyme, sequence (Q9BQA1 whole entry partner): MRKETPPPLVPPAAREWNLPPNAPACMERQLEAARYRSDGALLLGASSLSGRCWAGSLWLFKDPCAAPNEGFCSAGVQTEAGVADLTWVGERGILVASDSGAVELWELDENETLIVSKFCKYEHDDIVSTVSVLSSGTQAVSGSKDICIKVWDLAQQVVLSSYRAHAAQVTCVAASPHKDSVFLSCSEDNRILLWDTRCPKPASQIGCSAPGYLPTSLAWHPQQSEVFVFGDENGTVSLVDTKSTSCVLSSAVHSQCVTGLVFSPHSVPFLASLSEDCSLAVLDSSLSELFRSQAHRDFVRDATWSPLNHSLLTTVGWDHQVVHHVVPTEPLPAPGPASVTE

With `Nc1ncnc2c1ncn2[C@@H]1O[C@@]2(C[C@H]2CO)C(O)C1O` (stereo partly drawn) [drawing 333] the “% PRMT5 inhibition at 30 μM” value was 55.9%.

Point of comparison: `Nc1ncnc2c1ncn2[C@@H]1O[C@@]2(C[C@@H]2CO)C(O)C1O` (stereo partly drawn), inhibition at 30 µM 29%. Against it:
- Nc1ncnc2c1ccn2[C@@H]1C[C@]2(C[C@H](Cc3cccnc3)C2)[C@@H](O)[C@H]1O — higher, 100%
- Nc1ncnc2c1ncn2[C@@H]1O[C@]2(C[C@H]2CO)C(O)C1O (stereo partly drawn) — higher, 31%
- CCCN[C@H]1C[C@]2(C[C@@H](n3cnc4c(N)ncnc43)[C@H](O)[C@@H]2O)C1 — higher, 69.8%
- Nc1ncnc2c1ncn2[C@@H]1O[C@]2(C[C@@H](O)C2)[C@@H](O)[C@H]1O — higher, 70.3%
- CCCN(C)C[C@H]1C[C@]12O[C@@H](n1cnc3c(N)ncnc31)C(O)C2O (stereo partly drawn) — lower, 16%
- Nc1ncnc2c1ncn2[C@@H]1O[C@]2(C[C@@H]2CO)C(O)C1O (stereo partly drawn) — higher, 84%
- Nc1ncnc2c1ncn2[C@@H]1O[C@@]2(C[C@H]2O)C(O)C1O (stereo partly drawn) — higher, 72%
- Nc1ncnc2c1ncn2[C@@H]1O[C@@]2(CC[C@H]2O)C(O)C1O (stereo partly drawn) — higher, 98%
- Nc1ncnc2c1ccn2[C@@H]1C[C@]2(C[C@@H](Cc3cccnc3)C2)[C@@H](O)[C@H]1O — higher, 99.8%
- Nc1ncnc2c1ncn2[C@@H]1O[C@]2(C[C@H](O)C2)[C@@H](O)[C@H]1O — higher, 37.7%
- Nc1ncnc2c1ccn2[C@@H]1C[C@]2(C[C@@H](Cc3ccn4ccnc4c3)C2)[C@@H](O)[C@H]1O — higher, 102%
- Nc1ncnc2c1ncn2[C@@H]1O[C@@]2(CC[C@@H]2O)C(O)C1O (stereo partly drawn) — higher, 42%
- Nc1ncnc2c1ccn2[C@@H]1O[C@]2(C[C@@H](N)C2)[C@@H](O)[C@H]1O — higher, 46.3%
- Nc1ncnc2c1ncn2[C@@H]1O[C@@]2(C[C@H]2CO)C(O)C1O (stereo partly drawn) [drawing 332] — higher, 36.4%
- CCCN[C@H]1C[C@]2(C1)O[C@@H](n1cnc3c(N)ncnc31)[C@H](O)[C@@H]2O — higher, 33.8%
- NC[C@H]1C[C@]12O[C@@H](n1cnc3c(N)ncnc31)C(O)C2O (stereo partly drawn) — higher, 79%
- CCCNC[C@H]1C[C@]12O[C@@H](n1cnc3c(N)ncnc31)C(O)C2O (stereo partly drawn) — higher, 39%

Reference: patent publication US20220275018A1, “NOVEL SPIROBICYCLIC INTERMEDIATES” (Janssen Pharmaceutica NV, priority 2019, published 2022)
